Data set [1] has as its system contamination of culture media. The conditions noted are these: plants cultivated in vitro; cited from earlier work.
In a further data set the test system is Musa sp. The data set can be described thus: Development of "in vitro" plants of Musa sp., multiplication phase (scaleup). The conditions noted are these: scaleups, standard method 1%. On the procedure:
An effective washout of the flasks and lids to be used in the production of in vitro plants was conducted using detergent, rinsing them with sufficient water and to then submerging the bottles in a sodium hypochlorite solution at 0.5% for a time interval never smaller than 3 minutes. Afterwards, the flasks are placed upside down and they should be used totally dry before 24 hours.
Once the culture medium is prepared and reaches a temperature of approximately 60-80° C. it is added the necessary weight of the formulation to obtain a concentration of 35 μg/ml and, then the volume required is poured into each of the flasks proceeding to the planting procedure after 24 hours.
Two scaleup studies were conducted on a Musa sp. culture in the multiplication phase. The death rate percentage during the three assays was 0.81% for the scaleups conducted adding the active principle and 1% for the standard method.
Two scaleup studies were conducted on a Musa sp. culture in the multiplication phase.

Data set [2] in a line: Water solubility and dissolution of active principle. The format is physicochemical.
Data set [3] in a line: Thermal stability of active principle. The format is physicochemical.
In a further data set the test system is bacteria and fungi. The conditions noted are these: EP-A 0 678 516; cited from earlier work.

On to `CO[C@@H]1[C@@H](OC(N)=O)[C@@H](O)[C@H](Oc2ccc3c(O)c(NC(=O)c4ccc(O)c(CC=C(C)C)c4)c(=O)oc3c2C)OC1(C)C` [Novobiocin], for which the Prevention of contamination result in data set [1] is “without satisfactory results”.

For the molecule `CN[C@@H]1[C@H](O[C@H]2[C@H](O[C@H]3[C@H](O)[C@@H](O)[C@H](NC(=N)N)[C@@H](O)[C@@H]3NC(=N)N)O[C@@H](C)[C@]2(O)CO)O[C@@H](CO)[C@H](O)[C@H]1O` [Dihydrostreptomycin], the Prevention of contamination entry in data set [1] is “without satisfactory results”.

In the data set with Musa sp., `O=[N+]([O-])C(Br)=Cc1ccc(Br)o1` [1-(5-bromophur-2-yl)-2-bromo-2-nitroethene] had a Death rate percentage of 0.81%. Also, the “Dissolution rate in an aqueous medium” value in data set [2] (aqueous medium) is reported as “reduced dissolution rate”. Further, the Water solubility entry in data set [2] (water) was “close-to-null water solubility”. For the same molecule, in data set [3], the “Thermally stable up to” value is “up to 110 °C”. Besides, the “Antibacterial and antifungal activities” value in the data set on bacteria and fungi was “powerful agent with antibacterial and antifungal activities”.

Turning to `CO/N=C(\C(=O)N[C@@H]1C(=O)N2C(C(=O)O)=C(COC(C)=O)CS[C@H]12)c1csc(N)n1` [Cefotaxim], in data set [1], the Prevention of contamination result is recorded as “without satisfactory results”.

The values are drawn from patent US6316014A, “Microcide composition” (Centro de Bioactivos Quimicos (CBQ), priority 1996, dated 2001).
